Measured values: patent US20220409727A1, “Metal Complexes Bearing Bisstyryl-Bipyridine Ligand and Their Use as Photosensitizer Agent in One and Two-Photon Photodynamic Therapy” (Paris Sciences et Lettres, priority 2019, published 2022)
Like-named read-outs stand apart in the source and are kept apart here.

What was measured:
[1] = Luminescence quantum yield measurements; assay type: physicochemical; set-up: key: fraction, relative to [Ru(bipy)3]Cl2 reference in CH3CN (Φem=5.9%); conditions: CH3CN, room temperature, excitation at 355 nm
Protocol: For the determination of the luminescence quantum yield, the samples were prepared in an CH3CN solution with an absorbance of 0.1 at 355 nm. This solution was irradiated in fluorescence quartz cuvettes (width 1 cm) using a NT342B Nd-YAG pumped optical parametric oscillator (Ekspla) at 355 nm. The emission signal was focused and collected at right angle to the excitation pathway and directed to a Princeton Instruments Acton SP-2300i monochromator. As a detector a XPI-Max 4 CCD camera (Princeton Instruments) has been used. The luminescence quantum yields were determined by comparison with the reference [Ru(bipy)3]Cl2 in CH3CN (Φem=5.9%) (Nakamaru, K., 1982) applying the following formula:
Φem, sample=Φem, reference*(Freference/Fsample)*(Isample/Ireference)*(nsample/nreference)^2
Φem=luminescence quantum yield, F=fraction of light absorbed, I=integrated emission intensities, n=refractive index, A=absorbance of the sample at irradiation wavelength.

[2] = system: human glioblastoma astrocytoma (U373) cells
Protocol: (§1) The human glioblastoma astrocytoma (U373) cell line was cultured in MEM medium supplemented with 10% FBS, 1% NEAA (non-essential amino-acids) and 1% penicillin/streptomycin. […] The human retinal epithelial cells (RPE-1, non-cancerous cells immortalized with hTERT) were cultured in DMEM-F12 medium supplemented with 10% FBS and 1% penicillin/streptomycin. All cell lines were obtained from the American Type Culture Collection (ATCC) and cultured at 37° C. and 5% CO2. Before an experiment, the cells were passaged three times.
(§2) The cytotoxicity of the compounds was assessed by measuring cell viability using a fluorometric resazurin assay. The cultivated cells were seeded in triplicates in 96 well plates with a density of 4000 cells per well in 100 μL of media. After 24 h, the medium was removed and the cells were treated with increasing concentrations of the compound diluted in cell media achieving a total volume of 200 μL. The cells were incubated with the compound for 4 h. After this time, the media was removed and replaced with 200 μL of fresh medium. For the phototoxicity studies, the cells were exposed to light with an Atlas Photonics LUMOS BIO irradiator. Each well was constantly illuminated with either a 480 nm or 540 nm irradiation. During this time, the temperature was maintained constantly at 37° C. The cells were grown in the incubator for additional 44 h. For the determination of the dark cytotoxicity, the cells were not irradiated and after the medium exchange directly incubated for 44 h. After this time, the medium was replaced with fresh medium containing resazurin with a final concentration of 0.2 mg/mL. After 4 h incubation, the amount of the fluorescent product resorufin was determined upon excitation at 540 nm and measurement its emission at 590 nm using a SpectraMax M2 Microplate Reader (Molecular Devices).
(§3) The obtained data was analyzed with the GraphPad Prism software.

[3] = system: human glioblastoma astrocytoma (U373) cells; experiment: (Photo-)cytotoxicity on 2D cell monolayers, resazurin assay, U373; conditions: for PI (480 nm): U373, dark vs 480 nm (10 min, 3.1 J/cm^2); for PI (540 nm): U373, dark vs 540 nm (40 min, 9.5 J/cm^2); for IC50: compounds 1-3 as chloride salts
Protocol: as §1, §2, §3

[4] = system: non-cancerous retinal pigment epithelium (RPE-1) cells; experiment: (Photo-)cytotoxicity on 2D cell monolayers, resazurin assay, RPE-1; conditions: for PI (480 nm): RPE-1, dark vs 480 nm (10 min, 3.1 J/cm^2); for PI (540 nm): RPE-1, dark vs 540 nm (40 min, 9.5 J/cm^2);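 on all read-outs here: cells exposed to compound 4 h, medium exchanged, then irradiated or kept dark, 44 h further growth, viability by resorufin fluorescence (ex 540 nm, em 590 nm)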
[5] = Emission measurement in CH3CN; assay type: physicochemical; conditions: room temperature, excitation at 355 nm
Protocol: The absorption of the samples was measured with a SpectraMax M2 Spectrometer (Molecular Devices). The emission was measured by irradiation of the sample in fluorescence quartz cuvettes (width 1 cm) using a NT342B Nd-YAG pumped optical parametric oscillator (Ekspla) at 355 nm. Luminescence was focused and collected at right angle to the excitation pathway and directed to a Princeton Instruments Acton SP-2300i monochromator. As a detector, a XPI-Max 4 CCD camera (Princeton Instruments) has been used.

[6] = system: human cervical carcinoma (HeLa) cells; experiment: (Photo-)cytotoxicity on 2D cell monolayers, resazurin assay, HeLa; assay type: cell-based; conditions: for PI (480 nm): dark vs 480 nm (10 min, 3.1 J/cm^2); for PI (540 nm): dark vs 540 nm (40 min, 9.5 J/cm^2)
Excerpt: Before an experiment, the cells were passaged three times.

[7] = system: HeLa MCTS; experiment: (Photo-)cytotoxicity on 3D multicellular tumor spheroids (ATP, CellTiter-Glo 3D); assay type: cell-based, human; conditions: for PI (1-Photon): dark vs 1-Photon irradiation (500 nm, 10 J/cm^2); for PI (2-Photon): dark vs 2-Photon irradiation (800 nm, 10 J/cm^2)
Protocol: autoclave. The hot emulsion was transferred into wells (50 μL per well) of a 96 cell culture well plate. The plates were exposed for 3 h to UV irradiation to ensure the sterility and allow the agarose solution to cool down. After this time, the agarose was overlayed with a HeLa cell suspension at a density of 3000 cells per well in 150 μL of media. The MCTS were cultivated and maintained at 37° C. in a cell culture incubator at 37° C. with 5% CO2 atmosphere. The culture media was replaced every two days. Within two-three days MCTs were formed from the cell suspension. The formation as well as integrity, diameter and volume of the MCTs was monitored by an Axio Observer Z1 (Carl Zeiss) phase contrast microscope. The volume was calculated using the following formula: V=4/3πr^3. The luminescence images along the z-axis were captured by a one-(λex=458 nm, λem=600-750 nm) or two-photon (λex=800 nm, λem=600-750 nm) excitation in the z-stack mode with a an LSM 880 (Carl Zeiss) laser scanning confocal microscope equipped with Argon and a Coherent Chameleon 2-Photon laser and a GaAsP detector.
The cytotoxicity of the compounds in 3D multicellular tumor spheroids (MCTS) was assessed by measurement of the ATP concentration. MCTS were treated with increasing concentrations of the compound (2% DMSO, v %) by replacing 50% of the media with drug supplemented media and incubation for 12 h. After this time, the MCTS were divided in three identical groups. The first group was strictly kept in the dark. The second group was exposed to a one-photon irradiation (500 nm, 10 J/cm^2) using a LED and the third group was exposed to a two-photon irradiation (800 nm, 10 J/cm^2) with a section interval of 5 μm using a LSM 880 (Carl Zeiss, Germany) laser scanning confocal microscope equipped with a Coherent Chameleon 2-Photon laser. After the irradiation, all groups were incubated additional 48 h. The ATP concertation was measured using a CellTiter-Glo 3D Cell Viability kit (Promega) by measuring the generated chemiluminescence with an infinite M200 PRO (Tecan) plate reader.

[8] = system: mouse colon carcinoma (CT-26) cells
Protocol: as §1, §2, §3

[9] = Luminescence lifetime measurements; assay type: physicochemical; conditions: excitation at 355 nm; for τ/ns air (Lifetime): air saturated CH3CN; for τ/ns degassed (Lifetime): degassed CH3CN
Protocol: For the determination of the lifetimes, the samples were prepared in an air saturated and in a degassed CH3CN solution with an absorbance of 0.2 at 355 nm. This solution was irradiated in fluorescence quartz cuvettes (width 1 cm) using a NT342B Nd-YAG pumped optical parametric oscillator (Ekspla) at 355 nm. The emission signal was focused and collected at right angle to the excitation pathway and directed to a Princeton Instruments Acton SP-2300i monochromator. As a detector a R928 photomultiplier tube (Hamamatsu) has been used.

[10] = read-out: IC50 480 nm (10 min, 3.1 J/cm^2), U373, irradiation 480 nm (10 min, 3.1 J/cm^2)
[11] = read-out: IC50 dark, U373, dark, 4 h incubation
[12] = dark, 4 h incubation, compounds 1-3 as chloride salts, read-out: IC50 dark
[13] = read-out: IC50 480 nm (10 min, 3.1 J/cm^2), irradiation 480 nm (10 min, 3.1 J/cm^2), compounds 1-3 as chloride salts
[14] = read-out: IC50 540 nm (40 min, 9.5 J/cm^2), irradiation 540 nm (40 min, 9.5 J/cm^2), compounds 1-3 as chloride salts
[15] = 1-Photon irradiation (500 nm, 10 J/cm^2), read-out: IC50 1-Photon irradiation (500 nm, 10 J/cm^2)
[16] = 2-Photon irradiation (800 nm, 10 J/cm^2, section interval of 5 μm), read-out: IC50 2-Photon irradiation (800 nm, 10 J/cm^2)
[17] = dark, 12 h incubation, read-out: IC50 dark

CN(C)c1ccc(/C=C/c2ccnc(-c3cc(/C=C/c4ccc(N(C)C)cc4)ccn3)c2)cc1.CN(C)c1ccc(/C=C/c2ccnc(-c3cc(/C=C/c4ccc(N(C)C)cc4)ccn3)c2)cc1.F[P-](F)(F)(F)(F)F.F[P-](F)(F)(F)(F)F.[Ru+2].c1ccc(-c2ccccn2)nc1 [Compound 4, [Ru(bipy)((E,E′)-4,4′-Bis[p-(N,N-dimethylamino)styryl]-2,2′-bipyridine)2][PF6]2]
ϕem (Luminescence Quantum Yield) [1]: 0.004
IC50 [2]: 19 ± 2.8 µM
PI (480 nm) [3]: >7.0
PI (540 nm) [3]: >5.3
IC50 [3, 10]: 14.3 ± 2.4 µM
IC50 [3, 11]: > 100 µM
PI (480 nm) [4]: >9.2
PI (540 nm) [4]: >6.8
λem/nm (Emission maximum) [5]: 703 nm
PI (480 nm) [6]: >11.8
PI (540 nm) [6]: >9.4
IC50 [6, 12]: > 100 µM
IC50 [6, 13]: 8.5 ± 1.2 µM
IC50 [6, 14]: 10.6 ± 2.2 µM
IC50 [7, 15]: 78.3 ± 5.1 µM
IC50 [7, 16]: 63 ± 4.2 µM
PI (1-Photon) [7]: >1.3
PI (2-Photon) [7]: >1.6
IC50 [7, 17]: > 100 µM
IC50 [8]: 7.3 ± 1.4 µM
τ/ns air (Lifetime) [9]: 69 ns
τ/ns degassed (Lifetime) [9]: 417 ns

COc1ccc(C=Cc2ccnc(-c3cc(C=Cc4ccc(OC)cc4)ccn3)c2)cc1.F[P-](F)(F)(F)(F)F.F[P-](F)(F)(F)(F)F.[Ru+2].c1ccc(-c2ccnc3c2ccc2c(-c4ccccc4)ccnc23)cc1.c1ccc(-c2ccnc3c2ccc2c(-c4ccccc4)ccnc23)cc1 [Compound 11, [Ru(4,7-Diphenyl-1,10-phenanthroline)2((E,E′)-4,4′-Bis[p-methoxystyryl]-2,2′-bipyridine)][PF6]2]
ϕem (Luminescence Quantum Yield) [1]: 0.027
IC50 [2]: 0.7 ± 0.3 µM
PI (480 nm) [3]: 20.6
PI (540 nm) [3]: 26.4
IC50 [3, 10]: 0.9 ± 0.2 µM
IC50 [3, 11]: 18.5 ± 1 µM
PI (480 nm) [4]: 23.1
PI (540 nm) [4]: 29.7
λem/nm (Emission maximum) [5]: 663 nm
PI (480 nm) [6]: 27.5
PI (540 nm) [6]: 23.6
IC50 [6, 12]: 16.5 ± 0.8 µM
IC50 [6, 13]: 0.6 ± 0.3 µM
IC50 [6, 14]: 0.7 ± 0.5 µM
IC50 [7, 15]: 3.8 ± 0.4 µM
phototoxicity in HeLa MCTS ([7]; 1 Photon and 2 Photons irradiation, compared with compounds 4-6, 8, 10): much higher phototoxicity
IC50 [7, 16]: 0.8 ± 0.5 µM
PI (1-Photon) [7]: 7.7
PI (2-Photon) [7]: 36.6
IC50 [7, 17]: 29.3 ± 2.9 µM
IC50 [8]: 0.5 ± 0.2 µM
τ/ns air (Lifetime) [9]: 108 ns
τ/ns degassed (Lifetime) [9]: 679 ns
